Reference: US11174270B2, “Crystal form of 3,4-dihydrothieno[3,2-d]pyrimidine compound and preparation method thereof” (PHAENO THERAPEUTICS CO., LTD., priority 2018, dated 2021)

What was measured:
HCMV (strain: GFP-AD169) = assay: Human cytomegalovirus (HCMV) transplantation model in mice; type: in vivo; conditions: NOD SCID mice, 8 mg/kg orally once per day
Method: Human Cytomegalovirus (HCMV) Transplantation Model in Mice
Gelatin sponge containing HCMV was transplanted into mice. After 9 days of continuous administration, the gelatin sponge was collected for plaque detection. The anti-HCMV effect of the compound in this model was evaluated by detecting the amount of HCMV in the gelatin sponge.
The animals used in the assay were NOD SCID mice (purchased from Shanghai SLAC Laboratory Animal Co., Ltd.), 5 weeks old, and male. There were 5 animals in each group. The day on which the mice were subjected to gelatin sponge transplantation was set as day 0. Human foreskin fibroblasts (HFF, MOI=0.03) were infected with HCMV (strain: GFP-AD169) in advance, and then the HFF cells infected with HCMV were added to 1 cm^2 gelatin sponges and incubated for use. The animals were anesthetized by intraperitoneal injection of pentobarbital sodium at a dose of 75 mg/kg (10 ml/kg). After the animals entered the deep anesthesia state, the treated gelatin sponges were subcutaneously transplanted into the back of the mice. From day 1 to day 9, 8 mg/kg (10 ml/kg) of compound 1 was administered orally once per day. On the day 9, four hours after the administration, the gelatin sponges were taken out and digested, and then the plaques were detected.

[1] = Plasma protein binding rate, equilibrium dialysis, human plasma; type: in vitro ADME; conditions: equilibrium dialysis 37° C. 4 hours, read-out: Plasma Protein Binding PPB bound(%) (converted)
Method: Determination of the Plasma Protein Binding Rate of the Compound
The protein-binding rates of the test compound in the plasma of CD-1 mice, SD rats and human were evaluated by the equilibrium dialysis method. Compound 1 was diluted into the plasma of the above three species respectively to prepare samples with a final concentration of 2 μM. The samples were then added to a 96-well equilibrium dialysis device, and dialyzed against phosphate buffer solution at 37° C. for 4 hours. Warfarin was used as a control compound in the assay. The concentrations of the test compound and warfarin in the plasma and buffer were determined by LC-MS/MS method.

[2] = test system: human cytomegalovirus (HCMV); assay: Fluorescence decay assay against human cytomegalovirus; type: cell-based; conditions: Human betaherpesvirus 5, 240 h; US3-6-EGFP-HCMV-AD169 in MRCS cells, 10 days of culture, GFP fluorescence intensity
Method: Fluorescence Decay Assay Against Human Cytomegalovirus
The antiviral activity of the compound against human cytomegalovirus (HCMV) was evaluated by determining the median effective concentration (EC50) value of the compound. The HCMV used in this assay was inserted with enhanced green fluorescent protein (EGFP) as a reporter gene by gene recombination, and thus the replication of the virus in cells can be reflected by the expression level of GFP. The inhibitory activity of the compound on the expression of GFP in HCMV was evaluated by determining the fluorescence intensity in the wells of different concentrations of the compound using a high-content cell analysis platform Acumen eX3.
Fluorescence Decay Assay Against HCMV
MRCS cells were inoculated into a black 96-well cell culture plate at a density of 20,000 cells per well, and then incubated overnight in a 37° C., 5% CO2 incubator. US3-6-EGFP-HCMV-AD169 viruses were added to the cell culture wells at a certain MOI (0.003 to 0.1), and incubated in a 37° C., 5% CO2 incubator for 3 hours. After adsorption of viruses, the medium containing viruses was pipetted out, and 200 μl of cell culture medium containing different concentrations of the compound (4-fold dilution, 6 test concentrations) was added. […] After 10 days of culture, the fluorescence intensity was detected with a high content cell analysis platform Acumen eX3 (TTP LabTech). […]

Structure (SMILES): COc1cc(N2CCN(C3=Nc4ccsc4[C@H](CC(=O)O)N3c3cc(C(F)(F)F)ccc3OC)C[C@H]2C)ccn1 (single isomer, unassigned) [Compound 1]
- body weights of the mice (HCMV (strain: GFP-AD169); day 1 to day 9): stable
- clinical observations (HCMV (strain: GFP-AD169); day 1 to day 9): no abnormality was found
- decrease in HCMV viral load (HCMV (strain: GFP-AD169); gelatin sponge with HCMV-infected HFF, day 1 to day 9, plaque detection): 2.38 log PFU/ml
- fraction unbound at 4 h, 2 μM [1]: 0.06
- EC50 [2]: 0.2 nM
